These results are taken from ChEMBL document CHEMBL3091347, “Comparison of Multiple Linear Regressions and Neural Networks based QSAR models for the design of new antitubercular compounds” (Eur J Med Chem, 2013).

≈ marks a conversion by molar mass, not a printed value.

In data set [1] the test system is Mycobacterium tuberculosis. Briefly: Antitubercular activity against Mycobacterium tuberculosis H37Rv. Type of data set: functional. The note with it: for MIC: Mycobacterium tuberculosis, H37Rv.
Data set [2] is described as follows: Lipophilicity, log P of the compound. The following applies: octanol/water.
For data set [3], the system named is Mycobacterium tuberculosis. Briefly: Antitubercular activity against Mycobacterium tuberculosis. Type of data set: functional. The note with it: for MIC: Mycobacterium tuberculosis.

Take `N/C(COc1ccc(Cl)cc1)=N\NC(=O)c1ccncc1`: in data set [1], the “log(1/MIC)” value is recorded as -0.494 and it took 3.12 µg/mL (≈ 10.2 µM) to inhibit growth (MIC). For the same compound, the logP in data set [2] (logP) stood at 1.34.

`Cc1ccccc1OC/C(N)=N/NC(=O)c1ccncc1`: in data set [1], the “log(1/MIC)” value is given as -1.097 and the minimal inhibitory concentration (MIC) was 12.5 µg/mL (≈ 44 µM). The same compound showed a logP in data set [2] (logP) of 1.27.

As to `C/C(=N\NC(=O)c1ccncc1)c1cccc(CN2CCN(c3ccc(F)cc3)CC2)c1O`, in data set [1], the “log(1/MIC)” value is listed as 0.3963 and the minimal inhibitory concentration (MIC) is 0.4 µg/mL (≈ 0.894 µM). In addition, the lipophilicity (logP) in data set [2] (logP) was found to be 3.68.

As to `CCCCCCCCC(=O)NNC(=O)c1ccncc1`, in data set [1], the “log(1/MIC)” value is 1.602 and the MIC turned out to be 0.03 µg/mL (≈ 0.108 µM). The logP in data set [2] (logP) is 2.22.

Turning to `Cc1cccc(OC/C(N)=N/NC(=O)c2ccncc2)c1`, in data set [1], the “log(1/MIC)” value is reported as -0.494 and it took 3.12 µg/mL (≈ 11 µM) to inhibit growth (MIC). Also, in data set [2] (logP), the logP was determined as 1.27.

As to `Cc1ccc(OC/C(N)=N/NC(=O)c2ccncc2)cc1`, in data set [1], the “log(1/MIC)” value is -0.796 and the MIC was found to be 6.25 µg/mL (≈ 22 µM). In addition, the logP in data set [2] (logP) worked out at 1.27.

Regarding `N/C(COc1cccc(Cl)c1)=N\NC(=O)c1ccncc1`, in data set [1], the “log(1/MIC)” value is -0.494 and the MIC stood at 3.12 µg/mL (≈ 10.2 µM). In data set [2] (logP), this compound returned a log partition coefficient (logP) of 1.34.

Consider `C/C(=N\NC(=O)c1ccncc1)c1cccc(CN(C)C)c1O`, for which, in data set [1], the “log(1/MIC)” value turned out to be 0.09006 and the minimal inhibitory concentration (MIC) came to 0.81 µg/mL (≈ 2.59 µM). The logP in data set [2] (logP) came out at 1.19.

Regarding `CCN(CC)Cc1cccc(/C(C)=N/NC(=O)c2ccncc2)c1O`, in data set [1], the “log(1/MIC)” value was found to be 0.09061 and the MIC was 0.81 µg/mL (≈ 2.38 µM). For the same compound, the logP in data set [2] (logP) is 2.09.

As for `CCCCN(CCCC)Cc1cccc(/C(C)=N/NC(=O)c2ccncc2)c1O`, in data set [1], the “log(1/MIC)” value is listed as -0.2078 and inhibition of growth (MIC) required 1.61 µg/mL (≈ 4.06 µM). Further, in data set [2] (logP), the log partition coefficient (logP) came to 4.05.

For `C/C(=N\NC(=O)c1ccncc1)c1cccc(CN2CCCC2)c1O`, in data set [1], the “log(1/MIC)” value is reported as -0.2108 and inhibition of growth (MIC) required 1.62 µg/mL (≈ 4.79 µM). For the same compound, the logP in data set [2] (logP) was determined as 1.99.

`C/C(=N\NC(=O)c1ccncc1)c1cccc(CN2CCOCC2)c1O`: in data set [1], the “log(1/MIC)” value came out at 0.09122 and it took 0.81 µg/mL (≈ 2.29 µM) to inhibit growth (MIC). The same compound showed a log partition coefficient (logP) in data set [2] (logP) of 1.61.

`C/C(=N\NC(=O)c1ccncc1)c1cccc(CN(c2ccccc2)c2ccccc2)c1O`: in data set [1], the “log(1/MIC)” value is listed as -0.2064 and the MIC stood at 1.61 µg/mL (≈ 3.69 µM). In data set [2] (logP), this compound showed a lipophilicity (logP) of 4.12.

As to `C/C(=N\NC(=O)c1ccncc1)c1cccc(CN2CCNCC2)c1O`, in data set [1], the “log(1/MIC)” value is recorded as 0.6866 and 0.21 µg/mL (≈ 0.594 µM) was the least that counted as inhibitory (MIC). This compound also displayed a lipophilicity (logP) in data set [2] (logP) of 1.05.

With `C/C(=N\NC(=O)c1ccncc1)c1cccc(CN(Cc2ccccc2)Cc2ccccc2)c1O`, in data set [1], the “log(1/MIC)” value is recorded as -0.2063 and the MIC was 1.61 µg/mL (≈ 3.47 µM). The log partition coefficient (logP) in data set [2] (logP) was found to be 4.33.

Take `C/C(=N\NC(=O)c1ccncc1)c1cccc(CN2CCN(c3cc4c(cc3F)c(=O)c(C(=O)O)cn4C3CC3)CC2)c1O`: in data set [1], the “log(1/MIC)” value worked out at 0.09913 and the MIC is 0.8 µg/mL (≈ 1.34 µM). In data set [2] (logP), this compound displayed a logP of 4.2.

On to `CCn1cc(C(=O)O)c(=O)c2cc(F)c(N3CCN(Cc4cccc(/C(C)=N/NC(=O)c5ccncc5)c4O)C(C)C3)c(F)c21` (stereo not given), for which, in data set [1], the “log(1/MIC)” value is given as 0.09873 and the lowest concentration to inhibit growth (MIC) was 0.8 µg/mL (≈ 1.29 µM). For the same compound, in data set [2] (logP), the logP amounted to 4.81.

Regarding `C/C(=N\NC(=O)c1ccncc1)c1cccc(CN2CCN(c3ccccn3)CC2)c1O`, in data set [1], the “log(1/MIC)” value stood at 0.3979 and the MIC came to 0.4 µg/mL (≈ 0.929 µM). In data set [2] (logP), this compound had a logP of 2.59.

Take `C/C(=N\NC(=O)c1ccncc1)c1cccc(CN2CCN(Cc3ccccc3)CC2)c1O`: in data set [1], the “log(1/MIC)” value was determined as 0.3951 and it took 0.4 µg/mL (≈ 0.902 µM) to inhibit growth (MIC). The same compound registered a logP in data set [2] (logP) of 3.83.

With `Cc1cc(C(=O)NN)ccn1`, in data set [1], the “log(1/MIC)” value was 0.1045 and inhibition of growth (MIC) required 0.79 µg/mL (≈ 5.23 µM). Besides, the log partition coefficient (logP) in data set [2] (logP) is -1.67.

Take `CCc1cc(C(=O)NN)ccn1`: in data set [1], the “log(1/MIC)” value is recorded as -0.5423 and the minimum inhibitory concentration (MIC) was 3.49 µg/mL (≈ 21.1 µM). In addition, the log partition coefficient (logP) in data set [2] (logP) was -1.14.

In the case of `CCCc1cc(C(=O)NN)ccn1`, in data set [1], the “log(1/MIC)” value is given as -0.9953 and the MIC came out at 9.89 µg/mL (≈ 55.2 µM). The logP in data set [2] (logP) is -0.615.

In the case of `COc1cc(C(=O)NN)ccn1`, in data set [1], the “log(1/MIC)” value is given as -1.408 and the MIC is 25.6 µg/mL (≈ 153 µM). The compound further returned a lipophilicity (logP) in data set [2] (logP) of -2.03.

`NNC(=O)c1ccnc(N)c1`: in data set [1], the “log(1/MIC)” value was -0.3436 and the minimum inhibitory concentration (MIC) worked out at 2.21 µg/mL (≈ 14.5 µM). In data set [2] (logP), this compound gave a logP of -2.84.

In the case of `CC(=O)NCc1cc(C(=O)NN)ccn1`, in data set [1], the “log(1/MIC)” value is -1.704 and the lowest concentration to inhibit growth (MIC) was 50.6 µg/mL (≈ 243 µM). The compound also came in with a lipophilicity (logP) in data set [2] (logP) of -3.75.

On to `NNC(=O)c1ccnc(I)c1`, for which, in data set [1], the “log(1/MIC)” value is on record as -1.825 and 66.8 µg/mL (≈ 254 µM) was the least that counted as inhibitory (MIC). For the same compound, the logP in data set [2] (logP) was -1.2.

As for `NNC(=O)c1ccnc(Cc2ccccc2)c1`, in data set [1], the “log(1/MIC)” value is listed as -0.942 and the minimum inhibitory concentration (MIC) amounted to 8.75 µg/mL (≈ 38.5 µM). The logP in data set [2] (logP) was -0.105.

Take `C=Cc1cc(C(=O)NN)ccn1`: in data set [1], the “log(1/MIC)” value was -0.7567 and 5.71 µg/mL (≈ 35 µM) was the least that counted as inhibitory (MIC). Besides, the log partition coefficient (logP) in data set [2] (logP) was -1.69.

`CC(O)(NNC(=O)c1ccncc1)C(=O)O` (stereo not given): in data set [3], the “log(1/MIC)” value amounted to 1.22 and the MIC was determined as 0.06 µg/mL (≈ 0.266 µM). Besides, the lipophilicity (logP) in data set [2] (logP) is -2.78.

For `O=C(NNC(O)C(Cl)(Cl)Cl)c1ccncc1` (stereo not given), in data set [3], the “log(1/MIC)” value was 1.4 and it took 0.04 µg/mL (≈ 0.141 µM) to inhibit growth (MIC). The compound further had a log partition coefficient (logP) in data set [2] of -1.22.

Turning to `CC(C)(C#N)NNC(=O)c1ccncc1`, in data set [3], the “log(1/MIC)” value turned out to be 1.22 and 0.06 µg/mL (≈ 0.294 µM) was the least that counted as inhibitory (MIC). The lipophilicity (logP) in data set [2] (logP) was -0.976.

As for `CCC(CC)=NNC(=O)c1ccncc1`, in data set [3], the “log(1/MIC)” value came to 1.7 and the MIC turned out to be 0.02 µg/mL (≈ 0.0974 µM). The compound also gave a lipophilicity (logP) in data set [2] (logP) of -0.469.

Regarding `CCCCC/C(C)=N/NC(=O)c1ccncc1`, in data set [3], the “log(1/MIC)” value is listed as 1.52 and the minimal inhibitory concentration (MIC) amounted to 0.03 µg/mL (≈ 0.129 µM). Further, the lipophilicity (logP) in data set [2] (logP) was 0.589.

Regarding `CC(C)/C=N\NC(=O)c1ccncc1`, in data set [3], the “log(1/MIC)” value came to 1 and the MIC is 0.1 µg/mL (≈ 0.523 µM). The same compound returned a logP in data set [2] (logP) of -0.998.

With `CC(C)CNNC(=O)c1ccncc1`, in data set [3], the “log(1/MIC)” value was found to be 1 and the MIC is 0.1 µg/mL (≈ 0.517 µM). In addition, in data set [2] (logP), the logP was -0.719.

For the compound `CCC(C)NNC(=O)c1ccncc1` (stereo not given), in data set [3], the “log(1/MIC)” value was 0.4 and it took 0.4 µg/mL (≈ 2.07 µM) to inhibit growth (MIC). This compound also registered a logP in data set [2] (logP) of -0.719.

Turning to `C/C=N/NC(=O)c1ccncc1`, in data set [3], the “log(1/MIC)” value is 1.4 and the MIC worked out at 0.04 µg/mL (≈ 0.245 µM). Also, the logP in data set [2] (logP) was -1.93.

In the case of `CC(C)=NNC(=O)c1ccncc1`, in data set [3], the “log(1/MIC)” value is given as 1.7 and it took 0.02 µg/mL (≈ 0.113 µM) to inhibit growth (MIC). Further, the logP in data set [2] (logP) was -1.53.

With `NNC(=O)c1ccccc1` [BENZOIC ACID HYDRAZIDE], in data set [3], the “log(1/MIC)” value is on record as 0.22 and the minimal inhibitory concentration (MIC) came to 0.6 µg/mL (≈ 4.41 µM). The compound further came in with a lipophilicity (logP) in data set [2] of -0.845.

For the compound `CC(C)NNC(=O)c1ccncc1` [IPRONIAZID], in data set [3], the “log(1/MIC)” value stood at 0.4 and the MIC was 0.4 µg/mL (≈ 2.23 µM). The compound also came in with a logP in data set [2] of -1.248.

What is called MIC is the lowest concentration found to suppress growth. Lower therefore signals greater potency. As a reminder, the logP is a log measure of how a compound divides between an organic and an aqueous phase. Lower therefore signals a more hydrophilic compound.
